Compound,pKa (basic group),pKa (acidic group)
CN(C)Cc1ccc(O)c(O)c1O,8.26,
CN1CCC2Cc3ccc(O)c(O)c3C3CCCC1C23 (stereo not drawn),7.58,
CC(N)CCCc1ccc(O)cc1 (stereo not drawn),9.4,
NCc1cccc(O)c1,9.06,
CS(=O)(=O)c1ccc(O)cc1,,7.83
CNCCCC(=O)[O-],10.8,
O=C(/C=C(/[70SH])c1ccccc1)Nc1ccccc1,,4.51
CCC1CCCN1C (stereo not drawn),9.78,
c1ncc2c(n1)NCCN2,6.63,
C=CCN1CC[C@]23c4c5ccc(O)c4O[C@H]2[C@@H](O)C=C[C@H]3[C@H]1C5,7.83,
CN1CC(O[Si](C)(C)C)C1,9.1,
O=C([O-])/C=C\c1c[nH]cn1,6.7,
CN1CSC[C@H]1C(=O)[O-],6.6,
Nc1ccccc1-c1nc2ccccc2s1,2.6,
C=Cc1c(C)c2cc3nc(c(CC(=O)OC)c4[nH]c(cc5nc(cc1[nH]2)C(C)=C5CC)c(C)c4C(=O)NCC)[C@@H](CCC(=O)OC)[C@@H]3C,2.7,
O=C1CCc2ccccc2C1,12.8,
FC(F)(F)c1cc(C(F)(F)F)[nH]n1,,7.51
Cn1ccnc1-c1nccn1C,4.91,
Cc1nc2ncccc2[nH]1,4.6,
CO[C@H]1CC=C2CCN3CC[C@H](CO)/C(=C\CO)[C@]23C1,8.42,
Nc1ccc(CC(=O)[O-])cc1,5.2,
NCCC[n+]1ccc2c([N+](=O)[O-])cccc2c1,8.48,

Compound,pKa (basic group),pKa (acidic group)
C(CNCCc1nnn[n-]1)NCCc1nnn[n-]1,9.33,
C[n+]1c(N)ccnc1[O-],7.38,13.5
CC[NH+](CC)Cc1cn2nc(-c3ccccc3)cc(C)c2n1,2.2,
Cc1c(Br)cccc1C(=O)O,,3.36
COc1ccc(O)c(/N=N/c2nc(C)cs2)c1,0.77,7.98
CCCCNCCN,10.3,
CCCCSCCN(CC)CC,8.43,
c1cc(-c2cc[nH+]cc2)ccn1,3.17,
COc1ccc(-c2cn3ccsc3n2)c(OC)c1,4.67,
CC(C)(C)O,,17
Cc1cc(C(=O)O)n[nH]1,,3.99
CC(=O)Nc1nnn[nH]1,,4.53
O=C(c1ccccc1)c1ccccc1O,,9.3
O=C1C=C(S(=O)(=O)[O-])c2cn[nH]c2/C1=N\O,,5.85
Cc1cc(/N=N/c2ccc(S(N)(=O)=O)cc2)cc(C(=O)[O-])c1O,,10.2
NCCc1ccccn1,9.51,
ClC1CC2CCN1CC2 (stereo not drawn),6.98,
CCCC(C)C1(CC)C(=O)N=C([O-])NC1=O (stereo not drawn),,12.4
CC(c1ccc([N+](=O)[O-])cc1)[N+](=O)[O-] (stereo not drawn),,6.51
O=Cc1cccc(O)c1,,8.86
CCOC(=O)Nc1ncnc2nc[nH]c12,2.4,9.63
Oc1cccc(-c2ccccc2)c1,,9.59

Compound,pKa (basic group),pKa (acidic group)
CCCCCCN,10.7,
CCC(C)NC(C)CC (stereo not drawn),10.9,
NC(=S)C1([NH3+])CCCCC1,-8.08,
Cc1ccc(C)c(C(=O)C(=O)O)c1,,1.45
CC(CC(C#N)(c1ccccc1)c1ccccc1)N1CCCCC1 (stereo not drawn),7.73,
CCN(CC)CCNc1cc(C)nc(N)n1,9.55,
Nc1ccc(S(=O)(=O)Nc2nccs2)cc1/N=N/c1ccccc1,,5.85
O=C1C(O)=C(/C=C/c2ccccc2)C(=O)c2ccccc21,,4.44
COc1ccc(/N=N/c2ccncc2)cc1,4.53,
CN(C)c1cccnc1,6.67,
C/N=c1/scc(C)n1C,9.97,
CCN(CCC#N)CCC#N,4.55,
O=C1C=C(S(=O)(=O)[O-])c2[nH]ncc2/C1=N/O,,7.75
O=C(O)[C@@H]1CC[C@@H](C(=O)O)[Se]1,,3.46
Cc1ccc(/C(N)=N/O)cc1,5.14,
C[C@@H]1CC[C@H]2CC[C@H](C)N21,11.5,
c1ccc(Cc2cc(-c3ccccc3)nnc2NCC[NH+]2CCOCC2)cc1,3.6,
[NH3+]CCN1CCOCC1,4.84,
CC[NH+](CC)CCCC(C)Nc1ccnc2ccccc12 (stereo not drawn),8.81,
CCCCNN,7.82,
CCNCCCC(=O)[O-],11,

# Source: the pKa sets of Baltruschat and Czodrowski (2020)
